In test [1] the test system is Hsp70 promoter (1.5 kb region upstream of the start codon of the human HSPA1A gene) in 50B11 cells. In words: Luciferase reporter assay assessing Hsp70 induction. It is filed as cell-based. To be noted: for Hsp70 induction (luciferase), Mean: 50B11 cells treated 16 hrs, DMSO (negative control) assigned a value of 100. The procedure: The luciferase reporter assay was performed using a 1.5 kb region upstream of the start codon of the human HSPA1A gene to drive luciferase expression as previously described. 50B11 cells (Chen, et al., 2007) were grown in 10 cm dishes in maintenance medium and the cells were transfected using lipofectamine. Twenty four hour after transfection, the cells were re-seeded into 24 well plates at a density of 2×10^5 cells per well. After a 6 hrs period to permit attachment, the cells were treated with the indicated compounds for 16 hrs. Luciferase activity was assessed and normalized to the total protein concentration of each well.

Test [2] relates to Hsp70 protein expression in 50B11 cells. In words: Immunoblot analysis of Hsp70 protein expression. To be noted: 24 hr, 1 μM, FIGS. 3A & 3B. It is filed as cell-based. As for the experimental part: FIGS. 3A & 3B show the induction of Hsp70 protein expression by some of the compounds described herein. […] In the immunoblot analysis, 50B11 cells were treated for 24 hr with 1 μM of the indicated analogs or 250 nM geldanamycin (GDA) as a positive control. […] Results are mean±standard error of the mean (SEM) (n=6). […] The remaining para-substituted and ortho-substituted compounds were similarly effective.
50B11 cells were treated with the indicated compounds for 24 hrs and were scraped into lysis buffer containing 50 mM Tris-HCl, pH 7.4, 150 mM NaCl, 1 mM EDTA, 1% NP-40, 0.5 mM sodium orthovandate, 40 mM NaF, 10 mM β-glycerophosphate, and Complete Protease Inhibitors (Roche Diagnostics). After 15 minutes on ice, the lysates were sonicated then centrifuged at 10,000×g for 10 min at 4° C. The protein concentration of the supernatant was estimated using a Bio-Rad protein assay and bovine serum albumin as the standard. Following SDS-PAGE, the proteins were transferred to nitrocellulose and the membrane incubated with 5% non-fat dry milk in phosphate buffered saline containing 0.1% Tween 20 (PBST) for 1-2 hrs at room temperature. The blots were probed with primary antibodies recognizing Hsp70 or R-actin at 4° C. overnight. The membranes were washed with PBST and subsequently incubated with HRP-conjugated secondary antibodies and immunoreactive proteins were visualized using chemiluminescence detection (GE Healthcare Life Sciences, Little Chalfont, Buckinghamshire, UK). The films were digitally scanned and densitometrically analyzed using ImageJ (NIH) software. Client protein degradation in MCF7 cells was performed as previously described (Urban, et al., 2010).
For orientation: Immunoblotting shows a protein as a band on a membrane.

Test [3] relates to 50B11 cells. In words: Mitochondrial bioenergetic assessment (XF96 extracellular flux analyzer, OCR and ECAR). The test is classed as cell-based. To be noted: 24 hrs, FIG. 4. The procedure: 50B11 cells were treated for 24 hr with DMSO (1), 10 nM (2,6,10), 100 nM (3,7,11), 500 nM (4,8,12) or 1,000 nM (5,9,13) of compounds 74 (2-5), 75 (6-9) or 59 (10-13). Mitochondrial respiration was measured in the intact cells using an XF96 extracellular flux analyzer that provides concurrent measures of mitochondrial oxygen consumption rate (OCR) and extracellular acidification rate (ECAR) as an indication of glycolytic activity. Results are plotted OCR versus ECAR. The net effect of the drugs on oxidative phosphorylation and glycolysis is indicated in each quadrant. Results are mean±standard error of the mean (SEM) (n=6).
Oxygen consumption rate (OCR) was assessed in the 50B11 transformed sensory neuron cell line, using an XF96 Extracellular Flux Analyzer (Seahorse Biosciences, North Billerica, Mass.). 50B11 cells were seeded into the 96 well plates at 40,000 cells per well and maintained in high glucose DMEM supplemented with 10% fetal bovine serum (Atlas Biologics, Fort Collins Colo.), 5 μg/ml blasticidin and antibiotics at 37° C. The maintenance media was changed to serum free unbuffered DMEM supplemented with 1 mM pyruvate and 5.5 mM D-glucose and the cells incubated at 37° C. in room air for one hour before starting the assay. After introducing the plate into the XF96 analyzer, the basal oxygen consumption rate (OCR) was measured prior to the addition of 1 μg/ml oligomycin to inhibit the ATP synthase to measure the portion of the basal OCR that was coupled to ATP synthesis; residual OCR after oligomycin treatment is from uncoupled respiration (proton leak). […]
After the respiratory measures, the cells were harvested and the protein content of each well determined using a Bradford protein assay. OCR values were normalized to the total protein content of each well and ATP-linked respiration, proton leak, maximal respiratory capacity, spare respiratory capacity and respiratory control ratio were determined as described (Brand and Nicholls, 2011; Chowdhury, et al., 2012)

For test [4], the target named is Hsp90 C-terminus nucleotide binding pocket. The settings on record: low affinity; cited from earlier work.
The mark [5] stands for this setting: 10 nM to 1,000 nM, FIG. 2, Table 2.

Each structure is given as a SMILES string. “Also recorded” adds a separate entry of the source.

By IC50 is commonly meant the concentration at which inhibition is half-maximal.

As for `CC(=O)NCCc1ccc(O)cc1-c1cccc(F)c1` [Compound 20], the “Hsp70 induction in luciferase assay (in words)” value (from here on “Hsp70 induction … (in words)”) in test [1] (setting [5]) was “inactive”. Further, the “Hsp70 induction (luciferase), Mean” value in test [1] (10 nM) came out at 88.07; in test [1] (100 nM) it was 87.40; in test [1] (500 nM), 93.87; in test [1] (1000 nM) it was 96.56.

`CC(=O)NCCc1ccc(OC2CCC(OCc3ccccc3)CC2)cc1-c1cccc(F)c1` (centres unmarked) [Compound 44, N-(2-(5-((4-(benzyloxy)cyclohexyl)oxy)-3′-fluoro-[1,1′-biphenyl]-2yl)ethyl)acetamide]: the “Hsp70 induction … (in words)” value in test [1] (500 nM and 1,000 nM, FIG. 1) is recorded as “highest level of Hsp70 expression”. Further, in test [2], the “Hsp70 protein expression (immunoblot, in words)” value (from here on “Hsp70 protein expression”) is given as “induced Hsp70 protein expression”.

For `CC(=O)NCCc1ccc(OC2CCC(OCc3ccc(Cl)cc3)CC2)cc1-c1cccc(F)c1` (centres unmarked) [Compound 59, N-(2-(5-((4-((4-chlorobenzyl)oxy)cyclohexyl)oxy)-3′-fluoro-[1,1′-biphenyl]-2-yl)ethyl)acetamide], in test [1] (setting [5]), the “Hsp70 induction … (in words)” value is listed as “robust induction of luciferase activity”. For the same compound, in test [2], the “Hsp70 protein expression” value is reported as “less effective”. Also, in test [3], the “Cellular respiration (in words)” value is listed as “decreased cellular respiration”.

For `CC(=O)NCCc1ccc(OC2C=CC(OCc3ccc(Cl)cc3)CC2)cc1-c1cccc(F)c1` (centres unmarked) [Compound 74], the “Hsp70 protein expression” value in test [2] is “equivalent levels of Hsp70 induction”.

As to `CC(=O)NCCc1ccc(OC2CCC(OCc3ccc(Cl)cc3)[C@@H](O)[C@H]2O)cc1-c1cccc(F)c1` (stereo partly drawn) [Compound 75, N-(2-(5-(((2R,3S)-4-((4-chlorobenzyl)oxy)-2,3-dihydroxycyclohexyl)oxy)-3′-fluoro-[1,1′-biphenyl]-2-yl)ethyl)acetamide], the “Hsp70 induction … (in words)” value in test [1] (setting [5]) is recorded as “good induction of Hsp70”. The “Hsp70 protein expression” value in test [2] is on record as “equivalent levels of Hsp70 induction; also recorded: increased Hsp70 protein expression”. In addition, in test [3] (10 nM to 1,000 nM), the “Oxidative phosphorylation and glycolysis (OCR versus ECAR, in words)” value is “more effective at dose dependently increasing oxidative phosphorylation and glycolysis”. Moreover, the “Cellular respiration (in words)” value in test [3] is reported as “increased cellular respiration”.

For the compound `CC(=O)Nc1cc2ccc(OC3CCC(OCc4ccccc4)CC3)c(C)c2oc1=O` (centres unmarked) [Compound 77], the “Hsp70 induction (luciferase), Mean” value turned out to be 146.19 in test [1] (10 nM), 106.40 in test [1] (100 nM), 102.93 in test [1] (500 nM) and 100.29 in test [1] (1000 nM).

For the compound `CC(=O)Nc1cc2ccc(OC3CCC(OCc4ccc(Cl)cc4)CC3)c(C)c2oc1=O` (centres unmarked) [Compound 78], the “Hsp70 induction (luciferase), Mean” value in test [1] (10 nM) is reported as 85.73; in test [1] (100 nM), 94.52; in test [1] (500 nM) it was 97.39; in test [1] (1000 nM), 105.69.

Consider `CC(=O)Nc1cc2ccc(OC3CCC(OCc4ccccc4Br)CC3)c(C)c2oc1=O` (centres unmarked) [Compound 79, N-(7-((4-((2-bromobenzyl)oxy)cyclohexyl)oxy)-8-methyl-2-oxo-2H-chromen-3-yl)acetamide], for which the “Hsp70 induction (luciferase), Mean” value in test [1] (10 nM) was 105.83; in test [1] (100 nM), 102.65; in test [1] (500 nM), 97.09; in test [1] (1000 nM) it was 91.42.

Take `COc1ccccc1COC1CCC(Oc2ccc3cc(NC(C)=O)c(=O)oc3c2C)CC1` (centres unmarked) [Compound 80, N-(7-((4-((2-methoxybenzyl)oxy)cyclohexyl)oxy)-8-methyl-2-oxo-2H-chromen-3-yl)acetamide]: the “Hsp70 induction (luciferase), Mean” value stood at 130.87 in test [1] (10 nM), 151.51 in test [1] (100 nM), 129.16 in test [1] (500 nM) and 142.77 in test [1] (1000 nM).

As to `CO[C@@H]1[C@@H](OC(N)=O)[C@@H](O)[C@H](Oc2ccc3c(O)c(NC(=O)c4ccc(O)c(CC=C(C)C)c4)c(=O)oc3c2C)OC1(C)C` [novobiocin], the IC50 in test [4] is roughly 700 µM.
